Experimental findings from patent US11001562B2, “Near-infrared fluorescent nerve contrast agents and methods of use thereof” (Beth Israel Deaconess Medical Center, priority 2013, dated 2021) are described below.

“Also recorded” adds a separate entry of the source.

Data set [1] is described as follows: Optical property measurements (absorbance and fluorescence spectra). To be noted: 100% FBS with 50 mM HEPES, pH 7.4, 37° C. In kind it is physicochemical. As for the experimental part:
Absorbance and fluorescence spectra were obtained at a concentration of […] in 100% FBS supplemented with 50 mM HEPES, pH 7.4. B) Optical properties of Oxazine 4 were measured in PBS (pH 7.4), FBS (pH 7.4), MeOH, and DMSO.
Oxazine derivatives were obtained from Fisher Scientific Inc. (Pittsburgh, Pa.) or Sigma-Aldrich (Saint Louis, Mo.), and BMB was synthesized as described previously (25). Optical measurements were performed at 37° C. in phosphate-buffered saline (PBS), pH 7.4 or 100% fetal bovine serum (FBS) buffered with 50 mM HEPES, pH 7.4. Absorbance and fluorescence emission spectra were measured using fiber optic HR2000 absorbance (200-1100 nm) and USB2000FL fluorescence (350-1000 nm) spectrometers (Ocean Optics, Dunedin, Fla.). NIR excitation was provided by a 532 nm green laser pointer (Opcom Inc., Xiamen, China) set to 5 mW and coupled through a […] core diameter, NA 0.22 fiber (Fiberguide Industries, Stirling, N.J.). In silico calculation of the partition coefficient (log D at pH 7.4) was calculated using Marvin and J Chem calculator plugins (ChemAxon, Budapest, Hungary). Chemical similarities were calculated by Instant J Chem 6.04 using “Chemical Hashed Fingerprint” with the Normalized Euclidean dissimilarity screening configuration (ChemAxon).
All optical measurements were performed at 37° C. in phosphate-buffered saline (PBS), pH 7.4, 100% fetal bovine serum (FBS) buffered with 50 mM HEPES, pH 7.4, methanol (MeOH), or dimethyl sulfoxide (DMSO). Absorbance and fluorescence emission spectra of the series of NIR fluorophores were measured using fiber optic HR2000 absorbance (200-1100 nm) and USB2000FL fluorescence (350-1000 nm) spectrometers (Ocean Optics, Dunedin, Fla.). Excitation light was provided by a 532 nm green laser pointer (Opcom Inc., Xiamen, China) set to 5 mW and coupled through a 300 μm core diameter, NA 0.22 fiber (Fiberguide Industries, Stirling, N.J.). In silico calculation of the partition coefficient (log D at pH 7.4) was calculated using Marvin and J Chem calculator plugins (ChemAxon, Budapest, Hungary).

Data set [2] has as its system rat brachial plexus and sciatic nerves. The data set can be described thus: In vivo nerve-specificity screening with FLARE imaging. The settings on record: for nerve-specific fluorescence signal in vivo: SD rats, 2 mg/kg (1 μmol) iv, 4 h after injection, brachial plexus and sciatic nerve. The text has this: The dual-NIR channel FLARE^a imaging system has been described in detail previously (26-28). In this study, a 670 nm excitation was used at a fluence rate of 4 mW/cm^2, with white light (400-650 nm) at 40,000 1×. Color and NIR fluorescence images were acquired simultaneously with custom software at rates up to 15 Hz over a 15 cm diameter field of view. A pseudo-colored lime green was used for NIR fluorescence in the color-NIR merged images. The imaging system was positioned at a distance of 18 inches from the surgical field.
Initial in vivo screening occurred in rats based on our previous study of BMB (Supplementary Methods) (25). For kinetic and dose-response studies, 50-400 nmol (0.8-6.3 mg/kg) of Oxazine 4 was injected intravenously into mice and measurements taken over 24 h. Control images were acquired prior to injecting NIR fluorophores. The fluorescence signal in nervous tissues and signal-to-background ratio (SBR) compared to neighboring muscle (Mu) were obtained over the period of imaging. For the large animal study, the optimal dose found in mice (200-400 nmol per mouse) was used in pigs by scaling to body surface area (29, 30).
Sprague-Dawley (SD) male rats weighing 250-300 g were purchased from Charles River Laboratories (Wilmington, Mass.). BMB, Oxazine 1, Oxazine 4, Oxazine 170, Oxazine 750, and Rhodamine 800 were initially screened to investigate nerve specificity in rats. For the initial screening, we administered a relatively high dose (2 mg/kg; 1 μmol) of each fluorophore intravenously. 4 h after injection, brachial plexus (BP) and sciatic nerve (SN) were imaged using the intraoperative FLARE^a system for in vivo nerve-specific fluorophores screening.

Data set [3] concerns pig sciatic nerve tissue cross sections. The data set can be described thus: Ex vivo nerve-specific fluorophore screening on nerve tissue sections. The settings on record: for nerve-specific fluorescence signal in cross-sectioned nerve: 20 min incubation; for adipose uptake: both ex vivo and in vivo. As for the experimental part:
Phase contrast image (top) and fluorescence image (bottom) of nerve tissue sections incubated with 100 μM of test fluorophores are shown. Nerve-specific fluorescence intensity was determined using staining of pig sciatic nerve cut in cross section. Nerve tissue sections were incubated in 30% FBS solutions without (negative control, autofluorescence only) and with each fluorophore. As a positive control, previously reported nerve-specific BMB was used. Shown are phase contrast image (top) and fluorescence image (bottom) of nerve tissue sections incubated with 100 μM of each fluorophore. The control autofluorescence images were taken with equivalent exposure time and normalization. Arrowheads indicate fluorescence signals in nerve bundles. Ad=adipose tissue. Scale bars=200 μm. The SBR of each nerve relative to the neighboring adipose tissue was quantified and labeled as—, SBR<1; +, SBR=1−2; and ++, SBR >2.
Sciatic nerves from female Yorkshire pigs were harvested, fixed in 2% paraformaldehyde (PFA), and flash frozen in optimal cutting temperature (OCT) compound using liquid nitrogen. Nerve tissues were cut in cross section using a cryostat at […] thickness onto positively charge glass slides. Tissue sections were washed once with phosphate buffered saline (PBS) for 2 min to remove residual OCT. The tissue was then fixed to the slide with 2% PFA for 15 min, followed by washing with PBS (3×5 min). A formulation was previously developed for intravenous (IV) administration and was used in the current study to incubate the fluorophores with the nerve tissue (25). All fluorophores were mixed from the 100 mM stock solution into the IV formulation at 100 µM and incubated with the washed nerve tissue sections at room temperature for 20 min. Additional IV formulation not containing fluorophore was mixed and used to wash each nerve section twice (5 min per wash) following incubation with the formulated fluorophore. The nerve section was then washed an additional 2 times with PBS (5 min per each), after which coverslips were mounted using Fluoromount-G (Southern Biotech, Birmingham, Ala.).
NIR fluorescence microscopy for ex vivo nerve tissue slides was performed on a Nikon Eclipse TE300 microscope system as previously described (12, 19, 25). The microscope was equipped with a 100 W mercury light source, NIR-compatible optics, and a NIR-compatible 10× Plan Fluor objective lens and a 100× Plan Apo oil immersion objective lens (Nikon, Melville, N.Y.). Images were acquired on an Orca-AG (Hamamatsu, Bridgewater, N.J.). Image acquisition and analysis was performed using IPLab software (Scanalytics, Fairfax, Va.). A custom filter set (Chroma Technology Corporation, Brattleboro, Vt.) composed of a 650±22 nm excitation filter, a 675 nm dichroic mirror, and an 710±25 nm emission filter were used to detect Oxazine derivatives and Rhodamine 800 signals in the nerve tissue slides. For BMB, a mercury light source was passed through a 360±25 nm BP excitation filter, a 400 nm LP beam splitter, and a 550±50 nm emission filter.

The mark [4] stands for this setting: 100 μM fluorophore, pig sciatic nerve sections.
[5] abbreviates: comparison of structures in discussion.

Consider `COc1cc(/C=C/c2ccc(N)cc2)ccc1/C=C/c1ccc(N)cc1` [BMB, reference compound], for which, in data set [1], the “Abs (peak absorbance)” value is recorded as 397 nm, the “Em (peak emission)” value came to 498 nm and the “λ (extinction coefficient)” value is 52,800 M^−1cm^−1. Besides, the “nerve-specific fluorescence signal in vivo” value in data set [2] was “nerve highlighting fluorophores”. For the same compound, in data set [3] (setting [4]), the “nerve-specific fluorescence signal in cross-sectioned nerve” value is “relatively high fluorescence signal in the nerve”, the “SBR of nerve relative to neighboring adipose tissue” value is recorded as below 1 and the adipose fluorescence signal result is “even higher than the target signal”.

Regarding `CCN(CC)c1ccc2nc3ccc(=[N+](CC)CC)cc-3oc2c1` [Oxazine 1], in data set [1], the “Abs (peak absorbance)” value is listed as 655 nm, the “Em (peak emission)” value is 670 nm and the “λ (extinction coefficient)” value is reported as 196,000 M^−1cm^−1. In addition, in data set [2], the “nerve-specific fluorescence signal in vivo” value is reported as “weak signal in the vicinity of nerve”. For the same compound, in data set [2] (setting [5]), the “adipose signal (discussion summary)” value is listed as “high adipose” and the “nerve signal (discussion summary)” value is “low nerve signal”. Also, in data set [3] (setting [4]), the “nerve-specific fluorescence signal in cross-sectioned nerve” value is “did not show any nerve-specific fluorescence signal” and the adipose fluorescence signal result is “adipose-specific fluorescence signal only”.

Take `CC/N=c1/cc2oc3cc(NCC)c(C)cc3nc-2c2ccccc12` [Oxazine 170]: in data set [1], the “Abs (peak absorbance)” value came out at 625 nm, the “Em (peak emission)” value came out at 650 nm and the “λ (extinction coefficient)” value is recorded as 69,000 M^−1cm^−1. The “nerve-specific fluorescence signal in vivo” value in data set [2] is recorded as “nerve highlighting fluorophores”. Further, the “nerve-specific fluorescence signal in cross-sectioned nerve” value in data set [3] (setting [4]) is “weak nerve-specific fluorescence signal”. Moreover, the adipose uptake entry in data set [3] is “strong adipose uptake; also recorded: high accumulation in adipose tissue”.

Turning to `CC/N=c1/cc2oc3c4c5c(cc3nc-2c2ccccc12)CCCN5CCC4` [Oxazine 750], in data set [1], the “Abs (peak absorbance)” value is recorded as 676 nm, the “Em (peak emission)” value is given as 684 nm and the “λ (extinction coefficient)” value is listed as 44,000 M^−1cm^−1. Further, in data set [3] (setting [4]), the “nerve-specific fluorescence signal in cross-sectioned nerve” value is “strong fluorescence signal throughout the cross-sectioned nerve”. In data set [3], the adipose uptake result is recorded as “strong adipose uptake”.

Regarding `N#CC1=c2cc3c4c(c2Oc2c1cc1c5c2CCCN5CCC1)CCC[N+]=4CCC3` [Rhodamine 800], in data set [1], the “Abs (peak absorbance)” value stood at 697 nm, the “Em (peak emission)” value is given as 710 nm and the “λ (extinction coefficient)” value is recorded as 68,000 M^−1cm^−1. The “uptake in / targeting of nerve” value in data set [2] (summary statement related to log D) was “low and low targeting affinity to the nerve”. The “nerve-specific fluorescence signal in cross-sectioned nerve” value in data set [3] (setting [4]) is “strong fluorescence signal throughout the cross-sectioned nerve”.
